Assay results as given in patent US11795199B2, “Peptide targeting Mycobacterium tuberculosis toxin-antitoxin system and use thereof” (Seoul National University R&DB Foundation, priority 2017, dated 2023).

Target: VapBC26 protein complex (Mycobacterium tuberculosis, UniProt O53778)
Sequence (O53778 whole entry, one chain of several): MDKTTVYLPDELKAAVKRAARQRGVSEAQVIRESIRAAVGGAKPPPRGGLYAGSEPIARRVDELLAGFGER

Sequence	inhibition of VapBC26 toxin-antitoxin complex formation (binding inhibitor, seen as increased ribonuclease activity)	concentration of VapBC26 from which the results of RFU were similar [µM]	ribonuclease activity of VapBC26 compared with addition of SEQ. ID. NO: 11 and SEQ. ID. NO: 13 peptides
PYVVAELDYLVATRVG [mimetic peptide for VapC26 α3]	acted as a VapBC26 binding inhibitor	–	–
YLVATRVGVDAELAV	acted as a VapBC26 binding inhibitor	–	–
DAELAVLRELAG [mimetic peptide for VapC26 α4]	acted as a VapBC26 binding inhibitor	≥ 10	more increased
